# Active and inactive are the calls of the source. No cut-off for these calls is given here.
# Tests used:
# [1] = target: Spermine oxidase (Homo sapiens) (UniProt Q9NWM0); test: Inhibition of SMOX (unknown origin) at 50 uM using spermine as substrate preincubated for 1 hr followed by substrate addition and measured after 20 mins by luminometer analysis relative to control; conditions: time 80.0 min
# IMR-32 [2] = test: Upregulation of LSD1 expression level in human IMR-32 cells by DAPI staining based analysis; assay type: functional, cell-based
# CHP-134 [3] = test: Cytotoxicity against human CHP-134 cells assessed lethal concentration measured after 72 hrs by cell titer glo assay; assay type: functional; conditions: read-out: LC50 (the source's name)
# IMR-32 [4] = test: Cytotoxicity against human IMR-32 cells assessed lethal concentration measured after 72 hrs by cell titer glo assay; assay type: functional; conditions: read-out: LC50 (the source's name)
# CHP-134 [5] = test: Cytotoxicity against human CHP-134 cells measured after 24 hrs in presence of bortezomib by cell titer glo assay; assay type: functional, cell-based
# CHP-134 [6] = test: Cytotoxicity against human CHP-134 cells assessed as lethal concentration measured after 24 hrs in presence of bortezomib by cell titer glo assay; assay type: functional; conditions: read-out: LC50 (the source's name)
# IMR-32 [7] = test: Cytotoxicity against human IMR-32 cells assessed as lethal concentration measured after 24 hrs in presence of bortezomib by cell titer glo assay; assay type: functional; conditions: read-out: LC50 (the source's name)
# CHP-134 [8] = test: Cytotoxicity against human CHP-134 cells assessed as lethal concentration measured after 24 hrs by cell titer glo assay; assay type: functional; conditions: read-out: LC50 (the source's name)
# IMR-32 [9] = test: Cytotoxicity against human IMR-32 cells assessed as lethal concentration measured after 24 hrs by cell titer glo assay; assay type: functional; conditions: read-out: LC50 (the source's name)
# IMR-32 [10] = test: Cytotoxicity against human IMR-32 cells assessed as combination index measured after 24 hrs by cell titer glo assay; assay type: functional
# [11] = target: T1, MAO-A (Amine oxidase [flavin-containing] A) (Homo sapiens, UniProt P21397); test: Inhibition of recombinant MAO-A (unknown origin) at 1 uM using luciferin as substrate preincubated for 1 hr followed by substrate addition measured after 20 min by microplate reader analysis relative to control; conditions: probe luciferin, time 80 min
# T1 sequence (P21397 whole entry): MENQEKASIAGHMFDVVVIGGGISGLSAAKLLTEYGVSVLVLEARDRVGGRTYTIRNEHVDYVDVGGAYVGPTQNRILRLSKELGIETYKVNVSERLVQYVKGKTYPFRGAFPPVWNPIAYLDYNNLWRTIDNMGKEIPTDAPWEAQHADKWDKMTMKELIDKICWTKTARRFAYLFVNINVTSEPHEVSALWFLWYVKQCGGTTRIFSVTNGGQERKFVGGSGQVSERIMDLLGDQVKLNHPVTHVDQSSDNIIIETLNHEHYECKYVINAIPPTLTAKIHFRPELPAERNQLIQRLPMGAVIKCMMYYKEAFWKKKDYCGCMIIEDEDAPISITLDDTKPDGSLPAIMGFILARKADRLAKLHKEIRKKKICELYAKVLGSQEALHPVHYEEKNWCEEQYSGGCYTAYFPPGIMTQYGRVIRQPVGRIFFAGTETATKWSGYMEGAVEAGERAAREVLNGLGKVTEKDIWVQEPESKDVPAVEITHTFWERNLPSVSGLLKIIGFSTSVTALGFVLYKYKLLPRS
# Chain of Spermine oxidase (Homo sapiens) (Q9NWM0 whole entry): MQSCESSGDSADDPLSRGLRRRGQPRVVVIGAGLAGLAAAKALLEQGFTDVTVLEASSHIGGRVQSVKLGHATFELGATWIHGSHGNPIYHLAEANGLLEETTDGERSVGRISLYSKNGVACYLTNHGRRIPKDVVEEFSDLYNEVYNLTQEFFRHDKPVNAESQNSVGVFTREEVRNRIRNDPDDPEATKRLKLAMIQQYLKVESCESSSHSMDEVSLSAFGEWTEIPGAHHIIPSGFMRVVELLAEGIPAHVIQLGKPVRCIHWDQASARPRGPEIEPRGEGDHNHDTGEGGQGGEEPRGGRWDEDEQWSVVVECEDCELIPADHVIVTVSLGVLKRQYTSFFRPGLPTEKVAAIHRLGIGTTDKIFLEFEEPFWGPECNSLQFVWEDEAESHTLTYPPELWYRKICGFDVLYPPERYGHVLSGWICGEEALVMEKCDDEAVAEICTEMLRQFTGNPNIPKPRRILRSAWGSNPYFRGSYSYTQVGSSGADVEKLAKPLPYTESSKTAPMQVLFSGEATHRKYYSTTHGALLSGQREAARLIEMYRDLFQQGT
compound,measurement,setting,value
O=S(=O)(Nc1ccc(Br)cc1-c1nnn[nH]1)c1ccc(-c2ccc(Cl)cc2)cc1,inhibition,[1],12%
same,Activity,IMR-32 [2],Active
same,CC50,CHP-134 [3],11600 nM
same,CC50,IMR-32 [4],3100 nM
same,Activity,CHP-134 [5],Active
same,CC50,CHP-134 [6],60 nM
same,CC50,IMR-32 [7],7 nM
CC(C)C[C@H](NC(=O)[C@H](Cc1ccccc1)NC(=O)c1cnccn1)B(O)O [BORTEZOMIB],CC50,CHP-134 [8],106 nM
same,CC50,IMR-32 [9],19 nM
same,CI,IMR-32 [10],0.37
C#CCN(C)CCCOc1ccc(Cl)cc1Cl [CLORGILINE],"inhibition at 20 min, 1 µM",[11],92%
COc1ccc(C2=C(c3ccc(C#N)c(F)c3)N=C(N3CCC(N)CC3)N(C)C2)cc1F,CC50,CHP-134 [6],16 nM
same,CC50,IMR-32 [7],8.4 nM

# Reference: ChEMBL document CHEMBL5247583, “Synthesis and evaluation of small molecule inhibitors of LSD1 for use against MYCN-expressing neuroblastoma” (Eur J Med Chem, 2022)
